Source: PubChem BioAssay (NCI)
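96-well plates; 48 h exposure; 5 concentrations. Endpoints by linear interpolation between flanking doses. Not reached: highest tested concentration assigned. GI50: concentration for 50% inhibition of growth. TGI: total growth inhibition.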 Where a SMILES comes first, the peptide text is derived from it. The star is where a group is joined. Boc = CC(C)(C)OC(=O)*; OBn = c1ccc(CO*)cc1; Bn = c1ccc(C*)cc1

How the values were obtained:
Experiment in all cases: NCI-60 cell line screen, 48 h
RXF 393 renal = test system: RXF 393 renal
COLO 205 colon = test system: COLO 205 colon
UACC-257 melanoma = test system: UACC-257 melanoma
MDA-N = test system: MDA-N
SK-MEL-28 melanoma = test system: SK-MEL-28 melanoma
OVCAR-4 ovarian = test system: OVCAR-4 ovarian
CCRF-CEM leukemia = test system: CCRF-CEM leukemia
HOP-62 NSCLC = test system: HOP-62 NSCLC
SW-620 colon = test system: SW-620 colon
SK-MEL-2 melanoma = test system: SK-MEL-2 melanoma

SMILES	TGI (RXF 393 renal) [µM]	TGI (COLO 205 colon) [µM]	TGI (UACC-257 melanoma) [µM]	TGI (MDA-N) [µM]	TGI (SK-MEL-28 melanoma) [µM]	TGI (OVCAR-4 ovarian) [µM]	TGI (CCRF-CEM leukemia) [µM]	TGI (HOP-62 NSCLC) [µM]	TGI (SW-620 colon) [µM]	TGI (SK-MEL-2 melanoma) [µM]	GI50 (RXF 393 renal) [µM]	GI50 (COLO 205 colon) [µM]	GI50 (UACC-257 melanoma) [µM]	GI50 (SK-MEL-28 melanoma) [µM]	GI50 (OVCAR-4 ovarian) [µM]	GI50 (CCRF-CEM leukemia) [µM]	GI50 (HOP-62 NSCLC) [µM]	GI50 (SW-620 colon) [µM]	GI50 (SK-MEL-2 melanoma) [µM]
CN(CCN(C)Cc1ccc(Cl)c(Cl)c1)CCN1CCCC1	99.9	41.2	23.9	31.4	20.3	> 100	23.6	> 100	> 100	59.9									
c1ccc(C[P+]2(c3ccccc3)CCCCC2)cc1	> 100	> 100	> 100		> 100	> 100	> 100	> 100	> 100	> 100									
CC(C)CC(NC(=O)C(CCC(=O)OCc1ccccc1)NC(=O)OC(C)(C)C)C(=O)NC(COCc1ccccc1)C(=O)NC(Cc1ccccc1)C(=O)O (stereo unspecified) (Boc-E(OBn)LS(Bn)F-OH; configuration not given here)	> 100	> 100	> 100	> 100	> 100			> 100	> 100	> 100									
COc1cc(C(C)(C)C)c(OC(=O)/C=C/C(=O)O/C=C/[N+](=O)[O-])c(C(C)(C)C)c1	81.7	> 100	> 100	> 100			37.3	> 100	> 100										
NC(=O)NC1=NCCC(=O)N1CCc1c[nH]c2ccccc12	48.3	27.9	34.6	60.1	41.2	52.9	37.9	37.6	57.7	29.3									
CC(C)OCC(O)COc1cc(=O)oc2ccccc12 (stereo unspecified)		> 100	> 100	> 100	> 100	> 100	> 100	> 100	> 100	> 100									
O=c1[nH]/c(=C/c2cccs2)c(=O)[nH]/c1=C/c1ccc(OCc2ccccc2)cn1	3.88	12.5	> 75	0.0766	> 100	45.5	4.34	8.47	> 100	> 52.2									
C/C(=C/CC[C@](C)(OC1OC(CO)C(O)C(O)C1OC1OC(C)C(O)C(O)C1O)[C@H]1CC[C@]2(C)[C@@H]1CC[C@@H]1[C@@]3(C)CC[C@H](O)C(C)(C)[C@@H]3C[C@H](O)[C@]12C)CO (stereo partly specified)	> 100	> 100	> 100	> 100	> 100	> 100	> 100	> 100	> 100										
O=C1CCCn2c3ccccc3c3ccnc1c32	68.8	> 100	> 56.1		> 100	> 100	> 100	> 100	> 100	> 100									
Oc1cccc(-c2cc(=S)ss2)c1	40.5	35.6	28.4		43.8	40.6		34.3	44.3	30.5									
CC1CCC(O)/C=C/C(=O)OC(C)C(O)/C=C/C(=O)O1 (stereo unspecified)	> 100	> 100	> 100	> 100	> 100	> 100	> 79.9	> 100	> 100	> 100									
COC(CO[Si](C)(C)N[Si](C)(C)OCC(OC)c1ccccc1)c1ccccc1 (stereo unspecified)	> 100	> 100	> 100	> 100	> 100	> 100	> 100	> 100	> 100	> 100									
CCOC(=O)n1c2ccccc2c2c(O)c(OC)c3c(c21)C(=O)NC3=O		52.2	> 100	> 100	> 100	> 100	> 100	> 100	> 100	> 100									
NC(=O)c1ccc(N)nc1	0.864	> 400	> 400	> 400	> 400	> 400	394	> 247	> 400	> 400									
CC12CCC3=C(CSC4=C3CSc3ccccc34)C1=CCCC2=O (stereo unspecified)	> 100	45.8			> 100	55.6	> 100	> 100	> 100	> 100									
CCOC(=O)Cn1c(=O)c2cc(C)cc3c(Cl)nc4c(OC)c(OC)cc1c4c32	> 100	> 100	> 100	> 100	> 100	> 100	> 100	> 100	> 100	> 100									
COc1c(Cl)ccc(Cl)c1-c1nnc(-c2c(Cl)c(Cl)c(Cl)c(Cl)c2-c2nc3ccc(C(=O)c4ccccc4)cc3[nH]2)o1	65.4	78.2	> 100	46.4	> 100	> 100	91.7	> 100	> 100	> 100									
C=CCCCN1C(=O)C2C3c4ccccc4C(C=O)(c4ccccc43)C2C1=O (stereo unspecified)		25.2	28.9	27.9	31.9	29.1	17.6	28.2	27.1	59.5									
CCCCOP(=O)(OCCCC)C(NS(=O)(=O)c1ccccc1)(C(=O)OCC)C(F)(F)F (stereo unspecified)	53	38.7	79.3	> 100	78.8	94.9	72.5	61.4											
O=C(OCc1ccccc1[N+](=O)[O-])N1c2ccccc2[C@@]23O[C@]24CCC[C@H]3C#C/C=C\C#C[C@H]14	> 100	> 100	> 100	> 100	> 100	> 100	66.6		> 100	> 100									
O=C1NC(N2CCOCC2)=N/C1=C\c1ccccc1		> 100	> 100	> 100	> 100	> 100	> 100	> 100	> 100	> 100									
Nc1c(Cl)ncnc1NCC1(CO)CCC1		> 100	> 100	> 100	> 100	> 100	> 100	> 100	> 100	> 100									

SMILES	TGI (RXF 393 renal) [µM]	TGI (COLO 205 colon) [µM]	TGI (UACC-257 melanoma) [µM]	TGI (MDA-N) [µM]	TGI (SK-MEL-28 melanoma) [µM]	TGI (OVCAR-4 ovarian) [µM]	TGI (CCRF-CEM leukemia) [µM]	TGI (HOP-62 NSCLC) [µM]	TGI (SW-620 colon) [µM]	TGI (SK-MEL-2 melanoma) [µM]	GI50 (RXF 393 renal) [µM]	GI50 (COLO 205 colon) [µM]	GI50 (UACC-257 melanoma) [µM]	GI50 (SK-MEL-28 melanoma) [µM]	GI50 (OVCAR-4 ovarian) [µM]	GI50 (CCRF-CEM leukemia) [µM]	GI50 (HOP-62 NSCLC) [µM]	GI50 (SW-620 colon) [µM]	GI50 (SK-MEL-2 melanoma) [µM]
CN(C)CCNc1ccccn1	> 100		> 100	> 100	> 100	> 100		> 100	> 100	> 100									
COC(=O)c1ccc2c(c1)CC1(C2)Cc2ccc3c(c2C1)CCC3 (stereo unspecified)	> 100	32.1	53.8	17.8	> 100	> 100	> 100	93	> 100										
CCCc1c(OC)c(O)c2c(=O)cc(OC)c3c4c(OC)cc(=O)c5c(O)c(OC)c(CCC)c(c1c23)c54		14.9	> 100	22.7	21.1	32.7	50.1	18.9	16.9	22.1									
CN(C)c1ccc(C(=C2C=CC(=[N+](C)C)C=C2)c2c(O)c(S(=O)(=O)[O-])cc3cc(S(=O)(=O)O)ccc23)cc1	> 100	> 100	> 100	> 100	> 100	> 100		> 100	> 100	> 100									
COc1cc(/C=C/C(=O)OC[C@]23O[C@H]2[C@@H](OC2OC(C)C(O)C(O)C2O)C2C=CO[C@@H](OC4OC(CO)C(O)C(O)C4O)C23)ccc1O (stereo partly specified)		> 100		> 100	> 100	> 100		> 100	> 100	> 100									
O=C(/C=C/c1ccco1)c1ccc(Nc2ccnc3cc(Cl)ccc23)cc1	> 100	> 100	> 100		> 100	> 100	> 100	> 100	> 100	> 100	20.9	39.2	76	74.9	39.9	6.56	> 100	3.51	76.7
C/C(=N\NC(=S)N/N=C(\C)c1ccccn1)c1ccccn1		> 100	> 100	> 100	> 100	> 100	1.7	5.28	> 100										
COc1ccc(/C=N/N=C(N)N)c(C(=O)O)c1OC	> 100	> 10	> 100		> 100	> 100	> 100		> 100										
CSCC[C@@H](NC(=O)[C@H](CC(C)C)NC(=O)C(Cc1cnc[nH]1)NC(=O)CNC(=O)[C@@H](NC(=O)[C@H](C)NC(=O)[C@H](Cc1cn(C=O)c2ccccc12)NC(=O)[C@H](CCC(N)=O)NC(=O)[C@@H](N)CC(N)=O)C(C)C)C(N)=O (stereo partly specified)	> 100	> 100	> 100		> 100	> 100	> 100	> 100	> 100	> 100									
O=C(/C=C/c1ccccc1O)CC(=O)/C=C/c1ccccc1O	9.06		18.7	13.3	> 31.6	> 88.1	> 26.2	19.4	24	17									
C=CCn1c(-c2ccc(N=NNc3ccc(-c4n[nH]c(=S)n4CC=C)cc3)cc2)n[nH]c1=S	37.8	> 100	> 100		> 100	6.35	> 100	14.8	> 100										
NCCCCN(CCCN)C(=O)OCc1ccccc1	> 100	> 100	> 100		> 100	> 100	> 100	> 100	> 100	> 100									
C(=C/c1ccc2nc(-c3ccc(/C=C/C=N/NC4=NCCCN4)cc3)cn2c1)/C=N/NC1=NCCCN1	48.6	> 100	> 100	> 100	> 100	> 100	> 100	> 100		> 100									
O=C1CCCc2ccc3c(c21)CC1(Cc2cc4c(cc2C1)CCCC4)C3	32	31.1	47.8		63.7	50.9	16	57.1	41.7	48.9									
Clc1ccc2nc3c(c(-c4ccccc4)nn3-c3ccccc3)c(-c3ccccc3)c2c1		> 100		> 100	> 100	> 100	> 100	> 100	> 100	> 100									
NC(=O)c1ncn(C2CCC(CP(=O)(O)O)C2)c1N (stereo unspecified)	> 100	> 100	> 100	> 100	> 100	> 100		> 100	> 100	> 100									
CC(=O)Nc1ccc(S(=O)(=O)/N=c2/sc(S(N)(=O)=O)nn2C)cc1	> 100	> 100			> 100	> 100		> 100	> 100	> 100									
CCNc1nc2ccccc2nc1NCC	> 100	> 100	> 100	> 100	> 100		> 100		> 100	> 100									
CCOC(=O)C(NC(=O)Nc1ccccc1)(Nc1cccc(Cl)c1)C(F)(F)F (stereo unspecified)	> 100	> 100	> 100	> 100	> 100		> 100	> 100	> 100	> 100									
CO/C=C(/C(=O)OC)c1ccccc1[C@H]1C[C@@H]1c1ccc(OC)cc1	> 100	25.8	72.8	56.7	52.2	45	> 100	98		32.1									
C=C1CN(C(=O)c2cc3cc(OC)c(OC)c(OC)c3[nH]2)c2cc([N+](=O)[O-])ccc21	> 100	> 100	> 100	> 100	> 100	> 100			> 100	> 100									
